This is an account of results in ChEMBL document CHEMBL1201862, “PubChem BioAssay data set” (2004).

The test system of one test is HeLa. Put plainly: viability loss in HeLa cells – cell-based, ATP luminescence, cherry-pick samples, cytotoxicity control, dose response (AID 687004). The format is functional. The conditions noted are these: Homo sapiens.
Test [1] can be described thus: alpha-synuclein stem-loop luciferase translation blockers – H4 neuroglioma cells, luminescence, confirmation (AID 1988). The format is functional, cell-based.
Test [2] is described as follows: Luminescence Cell-Based Dose Response HTS to Identify Inhibitors of 5'UTR Stem-Loop Driven Prion Protein mRNA Translation in H4 Neuroglioblastoma Cells. [Related pubchem assays: 1827 (Project Summary), 1813 (Primary HTS)]. The format is functional.
The subject of a further test is INS1. Put plainly: INS-1E survival protection against cytokine death – cell-based, luminescence, retest, dose response (AID 449756).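 Further: cell death triggered by IL-1 beta plus TNF-alpha plus IFN-gamma mixture; protective hits raise ATP signal compared with cytokine alone wells.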 The format is functional. The conditions noted are these: Rattus norvegicus.
A short description of test [3]: luciferase reporter signal suppression in cells – H4 neuroglioma cells, luminescence, dose response (AID 1990). The format is functional, cell-based. A general note: Reporter assays use an easily measured gene product as a stand-in for the process of interest.
The nature of test [4]: general mammalian cell viability loss – inhibitor set, cherry-pick, set 2, cytotoxicity control for miR-122 modulator project, dose response (AID 720697). The format is functional, cell-based.
Test [5] concerns the target T1, DNA repair protein RAD52 homolog (Homo sapiens, UniProt P43351).
T1 sequence (P43351 whole entry): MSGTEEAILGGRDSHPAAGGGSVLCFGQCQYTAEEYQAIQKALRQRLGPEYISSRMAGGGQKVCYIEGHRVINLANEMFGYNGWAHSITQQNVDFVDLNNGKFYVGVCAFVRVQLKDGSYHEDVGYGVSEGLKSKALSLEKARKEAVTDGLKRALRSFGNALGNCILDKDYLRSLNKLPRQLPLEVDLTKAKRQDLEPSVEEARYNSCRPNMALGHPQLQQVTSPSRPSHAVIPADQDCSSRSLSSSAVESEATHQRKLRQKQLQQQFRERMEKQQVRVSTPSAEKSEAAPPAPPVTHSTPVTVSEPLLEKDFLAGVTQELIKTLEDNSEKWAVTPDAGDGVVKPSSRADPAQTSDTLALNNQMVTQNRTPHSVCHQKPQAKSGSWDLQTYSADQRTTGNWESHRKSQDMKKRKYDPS
The format is functional, biochemical.

A short description of test [6]: activation of miR-122 Renilla sensor silencing – cell-based, Huh7 psiCHECK-miR122, Renilla luciferase, cherry-picked, dose response (AID 651956).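 Further: huh7 hepatoma cells stably carrying a psiCHECK-2 miR-122 sensor plasmid; renilla luciferase signal reporting endogenous miR-122 activity after 48 h compound exposure.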 The format is functional.
Test [7] is described as follows: general mammalian cell viability loss – activator set, cherry-pick, cytotoxicity control for miR-122 modulator project, dose response (AID 720690).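 Further: HEK293T human cells scored for general mammalian cytotoxicity.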 The format is functional, cell-based.
The next test addresses Beta-galactosidase (Escherichia coli, UniProt Q8VNN2). The test is described as follows: Dose response counterscreen for EBI2 assay utilizing the enzyme, b-galactosidase. The format is functional.
In test [8] the target is T2, Beta-2 adrenergic receptor (Homo sapiens, UniProt P07550). The test is described as follows: ADRB2 activation measured by internalization – cell-based, FAP fluorogen, flow cytometry, cherry pick 1, dose response (AID 588763). The format is functional. A general note: Flow cytometry measures light scatter and fluorescence of single cells or particles in a stream.
T2 sequence (P07550 whole entry): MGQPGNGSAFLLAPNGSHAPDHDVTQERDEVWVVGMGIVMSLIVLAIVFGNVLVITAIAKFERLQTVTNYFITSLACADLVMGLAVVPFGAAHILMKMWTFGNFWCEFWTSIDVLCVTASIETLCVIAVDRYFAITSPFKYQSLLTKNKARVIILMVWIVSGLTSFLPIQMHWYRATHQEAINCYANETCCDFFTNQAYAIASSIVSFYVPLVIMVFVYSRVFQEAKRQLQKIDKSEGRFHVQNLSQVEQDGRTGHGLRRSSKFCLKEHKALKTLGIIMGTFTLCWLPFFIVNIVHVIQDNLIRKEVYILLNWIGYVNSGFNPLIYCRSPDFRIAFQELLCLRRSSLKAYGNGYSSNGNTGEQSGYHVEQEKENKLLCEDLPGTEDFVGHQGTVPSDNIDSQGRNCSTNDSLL
Test [9] addresses T2, Beta-2 adrenergic receptor. The test is described as follows: Dose response for HTS for Beta-2AR agonists via FAP method from Powderset3. The format is functional.
The target of test [10] is Broad substrate specificity ATP-binding cassette transporter ABCG2 (Homo sapiens, UniProt Q9UNQ0). Put plainly: blockers of JC-1 export by ABCG2 – Ig-MXP3 cells, flow cytometry, dose response (AID 1690). The format is functional.
Sequence of Broad substrate specificity ATP-binding cassette transporter ABCG2 (Q9UNQ0 whole entry): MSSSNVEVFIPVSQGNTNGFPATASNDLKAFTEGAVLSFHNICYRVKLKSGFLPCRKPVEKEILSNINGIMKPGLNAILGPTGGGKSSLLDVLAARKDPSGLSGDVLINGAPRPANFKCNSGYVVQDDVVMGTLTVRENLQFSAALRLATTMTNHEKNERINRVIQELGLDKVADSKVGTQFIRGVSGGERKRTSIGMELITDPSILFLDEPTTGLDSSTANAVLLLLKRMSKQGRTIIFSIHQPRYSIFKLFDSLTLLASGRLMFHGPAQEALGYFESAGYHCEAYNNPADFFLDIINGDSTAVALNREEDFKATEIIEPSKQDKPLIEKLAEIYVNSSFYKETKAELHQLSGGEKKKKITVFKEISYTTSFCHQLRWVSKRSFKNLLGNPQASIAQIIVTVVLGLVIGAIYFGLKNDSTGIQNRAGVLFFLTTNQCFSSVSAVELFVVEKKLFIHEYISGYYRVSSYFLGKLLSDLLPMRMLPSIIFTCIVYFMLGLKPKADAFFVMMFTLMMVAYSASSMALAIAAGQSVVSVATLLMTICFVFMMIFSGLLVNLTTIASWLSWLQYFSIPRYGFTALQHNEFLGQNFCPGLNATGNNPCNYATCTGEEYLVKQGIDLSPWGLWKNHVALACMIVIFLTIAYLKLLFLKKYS
In a further test the target is Prothrombin (Homo sapiens, UniProt P00734). Put plainly: Thrombin 1536 HTS Dose Response Confirmation. [Related pubchem assays: 1046 (Thrombin 1536 HTS; hits were confirmed in this assay)]. The format is functional.
The nature of test [11]: bead-based luminescence quenchers, dual-tagged ARNT – biochemical, AlphaScreen, cherry-pick, artefact control for ARNT-TACC3 interaction inhibitor project, dose response (AID 651705).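 Further: AlphaScreen bead proximity signal that flags compounds interfering with the detection technology; potency reflects signal decrease which marks the compound as an assay artifact.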 The format is functional.
Another test deals with Vero. Put plainly: viability loss in Vero cells – cell-based, plate reader, cherry-pick samples, cytotoxicity control, dose response (AID 687020). The format is functional. The conditions noted are these: Chlorocebus sabaeus.
The next test has as its system A549. Put plainly: viability loss in A549 cells – cell-based, plate reader, cherry-pick samples, cytotoxicity control, dose response (AID 687028). The format is functional. The conditions noted are these: Homo sapiens.
The subject of another test is BHK-21. The test is described as follows: viability loss in BHK-21 cells – cell-based, plate reader, cherry-pick samples, cytotoxicity control, dose response (AID 687030). The conditions noted are these: Mesocricetus auratus. The format is functional.

Active and inactive are the calls of the source.

Sequence of Beta-galactosidase (Q8VNN2 whole entry): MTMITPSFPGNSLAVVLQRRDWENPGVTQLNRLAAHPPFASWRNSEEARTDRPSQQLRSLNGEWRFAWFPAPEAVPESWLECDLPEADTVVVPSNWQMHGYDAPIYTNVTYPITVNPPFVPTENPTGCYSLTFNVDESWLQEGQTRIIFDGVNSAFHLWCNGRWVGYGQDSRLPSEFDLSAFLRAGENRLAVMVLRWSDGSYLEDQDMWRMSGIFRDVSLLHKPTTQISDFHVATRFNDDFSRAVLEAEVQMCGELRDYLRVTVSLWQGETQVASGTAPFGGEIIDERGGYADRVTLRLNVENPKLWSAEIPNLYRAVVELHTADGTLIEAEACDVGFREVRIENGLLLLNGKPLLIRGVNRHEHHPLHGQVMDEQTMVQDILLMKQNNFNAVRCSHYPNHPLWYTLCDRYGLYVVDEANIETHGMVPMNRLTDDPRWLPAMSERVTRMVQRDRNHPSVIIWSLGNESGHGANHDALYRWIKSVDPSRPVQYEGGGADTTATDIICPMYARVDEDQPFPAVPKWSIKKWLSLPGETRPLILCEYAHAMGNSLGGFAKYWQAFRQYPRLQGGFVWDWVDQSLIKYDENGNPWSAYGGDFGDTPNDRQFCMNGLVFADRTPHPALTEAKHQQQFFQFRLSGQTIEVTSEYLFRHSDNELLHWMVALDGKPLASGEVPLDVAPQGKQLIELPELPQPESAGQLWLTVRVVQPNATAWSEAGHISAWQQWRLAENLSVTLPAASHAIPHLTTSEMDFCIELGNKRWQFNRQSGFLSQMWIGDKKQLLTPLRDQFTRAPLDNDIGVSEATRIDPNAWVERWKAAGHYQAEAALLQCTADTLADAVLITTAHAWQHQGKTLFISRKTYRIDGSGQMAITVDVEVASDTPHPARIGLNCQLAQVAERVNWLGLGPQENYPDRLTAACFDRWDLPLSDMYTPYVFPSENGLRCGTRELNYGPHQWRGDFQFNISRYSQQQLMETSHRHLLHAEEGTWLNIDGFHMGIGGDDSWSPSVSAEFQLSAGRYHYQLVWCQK

Take `CC(=O)c1sc(NC(=O)C2(F)C(F)(F)C(F)(F)C(F)(F)C(F)(F)C2(F)F)nc1C`: the AC50 is 22.6 µM (active) with HeLa and 4.23 µM (active) in the test on INS1. For the same molecule, the values for the concentration for a half-maximal effect (EC50) in test [1], in test [2] and in test [3] were 32.2 µM (active), > 120 µM (not active) and > 120 µM (not active), respectively.

Turning to `NCC12CC3CC(C1)CC(c1ccc(Br)cc1)(C3)C2`, the AC50 in test [4] was 5.67 µM (active); in [5], 32 µM (active); in [6] it was 16.3 µM (active); in [7], 17.1 µM (active).

On to `COc1ccc(N2CCN(C(=O)c3ccc4c(c3)CC(c3ccccc3)OC4=O)CC2)cc1` (stereo not drawn), for which, at Beta-galactosidase, the IC50 was > 80 µM (inactive).

`CC(Sc1nc(-c2ccccc2)cc(C(F)(F)F)n1)C(=O)N1CCCCC1` (stereo not drawn): the EC50 in test [8] is 0.214 µM (active); in [9], 0.0143 µM (active).

`CC(C)C(NS(=O)(=O)c1ccccc1)C(=O)OCc1cc([N+](=O)[O-])cc2c1OCOC2` (stereo not drawn): the EC50 in [10] is 1.57 µM (active). Further, the IC50 at Prothrombin is > 50 µM (not active).

With `O=C(NCCCn1ccnc1)Nc1cccc(Cl)c1`, the AC50 in test [11] was 116 µM (active).

With `N#Cc1c(Nc2ccccc2)[n+]([O-])c2ccc(Cl)cc2[n+]1[O-]`, the AC50 in the test on Vero was 22.5 µM (active); in the test with A549, 20.7 µM (active); with BHK-21 it was 38.5 µM (active).

The AC50 is the concentration at which the activity in the assay is half-maximal. What is called EC50 is the midpoint of the concentration-response curve. As usually defined, the IC50 is the concentration that gives 50% inhibition.
